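Briefly, cells in 96-well plates were exposed to five compound concentrations for 48 h, and endpoints were estimated by linear interpolation. Abbreviation: GI50, concentration required for 50% inhibition of growth.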 Calls of active or inactive are those of the source. Cut-off read from the data, not from the text of the source: active = GI50 up to about 1.1 µM and inactive = higher. Square brackets hold non-standard residues; d marks the D form. Peptide text beside a SMILES is read from it. ξ: configuration not given here. ξ2Thi = NC(Cc1cccs1)C(=O)O; ξR = N=C(N)NCCCC(N)C(=O)O; ξI = CCC(C)C(N)C(=O)O; ξL = CC(C)CC(N)C(=O)O; ξK = NCCCCC(N)C(=O)O; ξT = CC(O)C(N)C(=O)O; ξA = CC(N)C(=O)O
Experiments:
Test in all cases: DTP human tumour cell line panel, 48 h
CCRF-CEM = tested on: CCRF-CEM
MDA-MB-231 = tested on: MDA-MB-231
A498 = tested on: A498
RPMI-8226 = tested on: RPMI-8226
SF-295 = tested on: SF-295
TK-10 = tested on: TK-10
PC-3 = tested on: PC-3
NCI/ADR-RES = tested on: NCI/ADR-RES
SNB-19 = tested on: SNB-19
HCT-15 = tested on: HCT-15
K562 = tested on: K562
MDA-MB-435 = tested on: MDA-MB-435
MOLT-4 = tested on: MOLT-4
OVCAR-8 = tested on: OVCAR-8
CAKI-1 = tested on: CAKI-1
SR = tested on: SR
SK-MEL-28 = tested on: SK-MEL-28
NCI-H460 = tested on: NCI-H460
T47D = tested on: T47D
UACC-257 = tested on: UACC-257

In the case of `NC(=O)C1=CC2C3C=CC2(O)C(=O)OC3O1` (stereo not given), the GI50 (CCRF-CEM) is reported as 1.8 µM (inactive), the GI50 (MDA-MB-231) is reported as 7.64 µM (inactive) and the GI50 (A498) is reported as 32.7 µM (inactive). The GI50 (RPMI-8226) was 1.57 µM (inactive), the GI50 (SF-295) was 11.9 µM (inactive) and the GI50 (TK-10) was 4.07 µM (inactive). For the same molecule, the GI50 (PC-3) was 3.57 µM (inactive), the GI50 (NCI/ADR-RES) was 2.46 µM (inactive) and the GI50 (SNB-19) was 13.1 µM (inactive). For the same molecule, the GI50 (HCT-15) was 3.39 µM, the GI50 (K562) was 7.29 µM (inactive) and the GI50 (MDA-MB-435) was 3.27 µM (inactive). For the same molecule, the GI50 (MOLT-4) was 1.88 µM (inactive), the GI50 (OVCAR-8) was 2.46 µM (inactive) and the GI50 (CAKI-1) was 6.07 µM (inactive). The GI50 (SR) was 1.68 µM (inactive), the GI50 (SK-MEL-28) was 2.34 µM (inactive) and the GI50 (NCI-H460) was 17.9 µM (inactive). For the same molecule, the GI50 (T47D) was 3.36 µM (inactive) and the GI50 (UACC-257) was 2.58 µM (inactive).

`OC1c2c(ccc3c2CCC3)CC12Cc1ccccc1C2` (stereo not given) was tested, and the GI50 (CCRF-CEM) was 23.2 µM (inactive), the GI50 (MDA-MB-231) was 15.2 µM (inactive) and the GI50 (A498) was 16.2 µM (inactive). The GI50 (RPMI-8226) was 14.7 µM (inactive), the GI50 (SF-295) was 17.1 µM (inactive) and the GI50 (TK-10) was 14.8 µM (inactive). The GI50 (PC-3) was 15.3 µM (inactive), the GI50 (NCI/ADR-RES) was 14.3 µM (inactive) and the GI50 (SNB-19) was 15.7 µM (inactive). For the same molecule, the GI50 (HCT-15) was 16.5 µM, the GI50 (K562) was 17.1 µM (inactive) and the GI50 (MDA-MB-435) was 15.7 µM (inactive). For the same molecule, the GI50 (MOLT-4) was 26.6 µM (inactive), the GI50 (OVCAR-8) was 17.7 µM (inactive) and the GI50 (CAKI-1) was 16.7 µM (inactive). For the same molecule, the GI50 (SR) was 10.9 µM (inactive), the GI50 (SK-MEL-28) was 16.6 µM (inactive) and the GI50 (NCI-H460) was 17.1 µM (inactive). The GI50 (T47D) was 16.5 µM (inactive) and the GI50 (UACC-257) was 14.1 µM (inactive).

In the case of `O=c1oc2ccc3ccccc3c2cc1-c1nc2ccc([N+](=O)[O-])cc2o1`, the GI50 (CCRF-CEM) is reported as 75.2 µM (inactive), the GI50 (MDA-MB-231) is reported as 43.6 µM (inactive) and the GI50 (A498) is reported as 38.5 µM (inactive). For the same molecule, the GI50 (RPMI-8226) was > 51.1 µM (inactive), the GI50 (SF-295) was 13.5 µM (inactive) and the GI50 (TK-10) was 28.3 µM (inactive). The GI50 (PC-3) was > 100 µM (inactive), the GI50 (NCI/ADR-RES) was > 80.5 µM (inactive) and the GI50 (SNB-19) was 13.8 µM (inactive). For the same molecule, the GI50 (HCT-15) was 69 µM, the GI50 (K562) was > 62.1 µM (inactive) and the GI50 (MDA-MB-435) was > 58.3 µM (inactive). For the same molecule, the GI50 (MOLT-4) was > 67.6 µM (inactive), the GI50 (OVCAR-8) was > 100 µM (inactive) and the GI50 (CAKI-1) was > 44.7 µM (inactive). The GI50 (SR) was > 71.4 µM (inactive), the GI50 (SK-MEL-28) was > 100 µM (inactive) and the GI50 (NCI-H460) was 36.1 µM (inactive). The GI50 (T47D) was 66.8 µM (inactive) and the GI50 (UACC-257) was > 100 µM (inactive).

`COc1cc(CNc2c3ccccc3nc3ccccc23)cc(OC)c1OC` was tested, and the GI50 (CCRF-CEM) was 1.57 µM (inactive), the GI50 (MDA-MB-231) was 5.42 µM (inactive) and the GI50 (A498) was 1.82 µM (inactive). For the same molecule, the GI50 (RPMI-8226) was 2.82 µM (inactive), the GI50 (SF-295) was 3.56 µM (inactive) and the GI50 (TK-10) was 5.53 µM (inactive). For the same molecule, the GI50 (PC-3) was 3.23 µM (inactive), the GI50 (NCI/ADR-RES) was 4.16 µM (inactive) and the GI50 (SNB-19) was 4.63 µM (inactive). The GI50 (HCT-15) was 2.97 µM, the GI50 (K562) was 1.32 µM (inactive) and the GI50 (MDA-MB-435) was 3.5 µM (inactive). For the same molecule, the GI50 (MOLT-4) was 1.37 µM (inactive), the GI50 (OVCAR-8) was 3.79 µM (inactive) and the GI50 (CAKI-1) was 2.74 µM (inactive). For the same molecule, the GI50 (SR) was 3.08 µM (inactive), the GI50 (SK-MEL-28) was 5.04 µM (inactive) and the GI50 (NCI-H460) was 2.57 µM (inactive). For the same molecule, the GI50 (T47D) was 6.38 µM (inactive) and the GI50 (UACC-257) was 3.11 µM (inactive).

`C=C(C)C(=O)O[C@@H]1C[C@@]2(C)O[C@@H]2C[C@H](O)/C(C)=C/[C@H]2OC(=O)C(=C)[C@@H]21` was tested, and the GI50 (CCRF-CEM) was 17.3 µM (inactive), the GI50 (MDA-MB-231) was > 100 µM (inactive) and the GI50 (A498) was > 100 µM (inactive). The GI50 (RPMI-8226) was 40.1 µM (inactive), the GI50 (SF-295) was > 100 µM (inactive) and the GI50 (TK-10) was > 100 µM (inactive). The GI50 (PC-3) was > 100 µM (inactive), the GI50 (NCI/ADR-RES) was 60.7 µM (inactive) and the GI50 (SNB-19) was > 100 µM (inactive). The GI50 (HCT-15) was 30.9 µM, the GI50 (K562) was 29 µM (inactive) and the GI50 (MDA-MB-435) was 59.6 µM (inactive). For the same molecule, the GI50 (MOLT-4) was 28.8 µM (inactive), the GI50 (OVCAR-8) was 40.6 µM (inactive) and the GI50 (CAKI-1) was 28.6 µM (inactive). The GI50 (SR) was 28.2 µM (inactive), the GI50 (SK-MEL-28) was 22.4 µM (inactive) and the GI50 (NCI-H460) was > 100 µM (inactive). For the same molecule, the GI50 (T47D) was 50.7 µM (inactive) and the GI50 (UACC-257) was > 100 µM (inactive).

With `CC(C)(C)c1ccc(-c2nc3ccc([N+](=O)[O-])cc3c(=O)o2)cc1` the GI50 (CCRF-CEM) was 20.1 µM (inactive), the GI50 (MDA-MB-231) was 27.5 µM (inactive) and the GI50 (A498) was 29.9 µM (inactive). For the same molecule, the GI50 (RPMI-8226) was 30.9 µM (inactive), the GI50 (SF-295) was 20.8 µM (inactive) and the GI50 (TK-10) was 38.8 µM (inactive). The GI50 (PC-3) was 21.2 µM (inactive), the GI50 (NCI/ADR-RES) was 25.4 µM (inactive) and the GI50 (SNB-19) was 21.5 µM (inactive). The GI50 (HCT-15) was 22.6 µM, the GI50 (K562) was 19.1 µM (inactive) and the GI50 (MDA-MB-435) was 25.1 µM (inactive). For the same molecule, the GI50 (MOLT-4) was 18.7 µM (inactive), the GI50 (OVCAR-8) was 20.9 µM (inactive) and the GI50 (CAKI-1) was 50.4 µM (inactive). The GI50 (SR) was 22.7 µM (inactive), the GI50 (SK-MEL-28) was 34.4 µM (inactive) and the GI50 (NCI-H460) was 36.4 µM (inactive). For the same molecule, the GI50 (T47D) was 40.5 µM (inactive) and the GI50 (UACC-257) was 29.6 µM (inactive).

For `CCC(C)C(NC(=O)C(Cc1cccs1)NC(=O)C(CC(C)C)NC(=O)C(CC(C)C)NC(=O)C(CCCCN)NC(=O)C(CCCN=C(N)N)NC(=O)[C@H](Cc1ccc(O)cc1)NC(=O)C(NC(=O)C(C)NC(=O)C(N)CC(C)C)C(C)O)C(=O)NC(CC(C)C)C(N)=O` (stereo not given in full) (H-[ξL][ξA][ξT]Y[ξR][ξK][ξL][ξL][ξ2Thi][ξI][ξL]-NH2), the GI50 (CCRF-CEM) was > 50 µM (inactive), the GI50 (MDA-MB-231) was > 50 µM (inactive) and the GI50 (A498) was > 50 µM (inactive). The GI50 (RPMI-8226) was > 50 µM (inactive), the GI50 (SF-295) was > 50 µM (inactive) and the GI50 (TK-10) was > 50 µM (inactive). The GI50 (PC-3) was > 50 µM (inactive), the GI50 (NCI/ADR-RES) was > 50 µM (inactive) and the GI50 (SNB-19) was > 50 µM (inactive). The GI50 (HCT-15) was > 50 µM, the GI50 (K562) was > 50 µM (inactive) and the GI50 (MDA-MB-435) was > 50 µM (inactive). The GI50 (MOLT-4) was > 50 µM (inactive), the GI50 (OVCAR-8) was > 50 µM (inactive) and the GI50 (CAKI-1) was > 50 µM (inactive). The GI50 (SR) was > 50 µM (inactive), the GI50 (SK-MEL-28) was > 50 µM (inactive) and the GI50 (NCI-H460) was > 50 µM (inactive). The GI50 (T47D) was > 50 µM (inactive) and the GI50 (UACC-257) was > 50 µM (inactive).

Reference: ChEMBL document CHEMBL1201862, “PubChem BioAssay data set” (2004)
